Laboratory results as given in patent publication US20260250318A1, “COMPOSITIONS AND METHODS FOR CROSSING THE BLOOD BRAIN BARRIER” (VOYAGER THERAPEUTICS, INC., priority 2022, published 2026).

Tests used:
[1] = test system: brains, heart, liver, muscle, and DRG of the NHPs; assay: Maturation of TTM-001 and TTM-002 capsids, NGS enrichment in NHP tissues; assay type: in vivo; details: relative to AAV9 control
In short: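 Variants carry mutations within and flanking the loop IV peptide insert: positions 450–466 were triplet-randomized, while positions 449–466 received low-frequency point mutations. The combined pool went into two NHPs, and each peptide was scored by NGS enrichment ratio against AAV9.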

brain = assay: Matured TTM-001 and TTM-002 variants, NGS enrichment in mouse brain; assay type: in vivo, mice; details: relative to AAV9 control
[2] = NGS fold-enrichment of matured AAV capsid variants, NHP brain, RNA
[3] = NGS fold-enrichment of RNA, NHP brain
[4] = NGS fold-enrichment, DRG of NHPs
[5] = NGS fold-enrichment, NHP liver DNA
[6] = NGS fold-enrichment, NHP liver RNA
[7] = NGS fold-enrichment, NHP muscle
[8] = NGS fold-enrichment, RNA, brain of NHPs
[9] = NGS fold-enrichment, heart of NHPs
[10] = NGS fold-enrichment, liver DNA of NHPs
[11] = NGS fold-enrichment, liver RNA of NHPs
[12] = NGS fold-enrichment, muscle of NHPs
[13] = NGS fold-enrichment, brain of mice
[14] = NGS fold-enrichment, mouse brain

| Sequence | Fold Enrichment relative to AAV9, Brain (NHP) [1, 3] [fold] | Fold Enrichment relative to AAV9, DRG (NHP) [1, 4] [fold] | Fold Enrichment relative to AAV9, DRG (NHP) ([1]; NGS fold-enrichment, NHP DRG) [fold] | Fold Enrichment relative to AAV9, Heart (NHP) ([1]; NGS fold-enrichment, NHP heart) [fold] | Fold Enrichment relative to AAV9, Liver DNA (NHP) [1, 5] [fold] | Fold Enrichment relative to AAV9, Liver RNA (NHP) [1, 6] [fold] | Fold Enrichment relative to AAV9, Muscle (NHP) [1, 7] [fold] | Fold Enrichment relative to AAV9, Brain (NHP) [1, 8] [fold] | Fold Enrichment relative to AAV9, Heart (NHP) [1, 9] [fold] | Fold Enrichment relative to AAV9, Liver DNA (NHP) [1, 10] [fold] | Fold Enrichment relative to AAV9, Liver RNA (NHP) [1, 11] [fold] | Fold Enrichment relative to AAV9, Muscle (NHP) [1, 12] [fold] | Fold Enrichment relative to AAV9, Brain (Mouse) (brain; [13]) [fold] | Fold Enrichment relative to AAV9, Brain (Mouse) (brain; [14]) [fold] | further results |
| --- | --- | --- | --- | --- | --- | --- | --- | --- | --- | --- | --- | --- | --- | --- | --- |
| KTERGSGSPHSKAQNQQT | – | – | – | – | – | – | – | – | – | – | – | – | – | – | Fold Enrichment relative to AAV9, Brain (NHP) [1, 2]: 53.475 fold; Fold Enrichment relative to AAV9, DRG (NHP) ([1]; NHP DRG): 0.000 fold; Fold Enrichment relative to AAV9, Heart (NHP) ([1]; NHP heart): 0.030 fold; Fold Enrichment relative to AAV9, Liver DNA (NHP) ([1]; NHP liver, DNA): 0.175 fold; Fold Enrichment relative to AAV9, Liver RNA (NHP) ([1]; NHP liver, RNA): 1.416 fold; Fold Enrichment relative to AAV9, Muscle (NHP) ([1]; NHP muscle): 0.000 fold; Fold Enrichment relative to AAV9, Brain (Mouse) (brain; mouse brain): 85.368 fold |
| KTERISGSPHSKAQNQQT | 103.692 | 0.000 | 0.000 | 0.000 | 0.370 | 0.062 | 0.000 | 103.692 | 0.000 | 0.370 | 0.062 | 0.000 | 89.637 | 89.637 | – |
| KTERLSGSPHSKAQNQQT | 95.857 | 0.000 | 0.000 | 0.004 | 0.260 | 0.126 | 0.005 | 95.857 | 0.004 | 0.260 | 0.126 | 0.005 | 102.372 | 102.372 | – |
| KTERMSGSPHSKAQNQQT | – | 0.000 | – | – | – | – | – | 74.910 | 0.000 | 0.151 | 0.100 | 0.000 | 122.812 | – | – |
| KTERNSGSPHSKAQNQQT | 99.892 | 0.000 | 0.000 | 0.000 | 0.107 | 0.000 | 0.000 | 99.892 | 0.000 | 0.107 | 0.000 | 0.000 | 87.392 | 87.392 | – |
| KTERPSGSPHSKAQNQQT | 75.669 | 0.000 | 0.000 | 0.029 | 0.156 | 0.000 | 0.000 | 75.669 | 0.029 | 0.156 | 0.000 | 0.000 | 73.894 | 73.894 | – |
| KTERSSGSPHSKAQNQQT | – | 0.000 | – | – | – | – | – | 74.853 | 0.071 | 0.056 | 1.036 | 0.000 | 125.538 | – | – |
| KTERTSGSPHSKAQNQQT | 112.957 | 0.000 | 0.000 | 0.009 | 0.207 | 1.128 | 0.000 | 112.957 | 0.009 | 0.207 | 1.128 | 0.000 | 117.374 | 117.374 | – |
| KTERVSGSPHSKAQNQQT | 96.943 | 0.000 | 0.000 | 0.000 | 0.144 | 0.000 | 0.000 | 96.943 | 0.000 | 0.144 | 0.000 | 0.000 | 135.438 | 135.438 | Fold Enrichment relative to AAV9, Brain (NHP) [1, 2]: 96.943 fold; Fold Enrichment relative to AAV9, DRG (NHP) ([1]; NHP DRG): 0.000 fold; Fold Enrichment relative to AAV9, Heart (NHP) ([1]; NHP heart): 0.000 fold; Fold Enrichment relative to AAV9, Liver DNA (NHP) ([1]; NHP liver, DNA): 0.144 fold; Fold Enrichment relative to AAV9, Liver RNA (NHP) ([1]; NHP liver, RNA): 0.000 fold; Fold Enrichment relative to AAV9, Muscle (NHP) ([1]; NHP muscle): 0.000 fold; Fold Enrichment relative to AAV9, Brain (Mouse) (brain; mouse brain): 135.438 fold |
| KTESAHDSPHKSGQNQQT | 80.810 | – | 0.000 | 0.039 | 0.000 | 0.000 | 0.000 | – | – | – | – | – | – | 13.338 | – |
| KTESASGSPHSKAQNQQT | – | 0.000 | – | – | – | – | – | 68.651 | 0.000 | 0.084 | 0.274 | 0.000 | 80.500 | – | – |
| KTESGHDSPHKSGQNQQT | 86.513 | – | 0.000 | 7.414 | 0.038 | 0.000 | 0.000 | – | – | – | – | – | – | 13.163 | – |
| KTESHSGSPHSKAQNQQT | – | 0.000 | – | – | – | – | – | 61.947 | 0.000 | 0.106 | 1.480 | 0.000 | 52.506 | – | – |
| KTESRHDSPHKSGQNQQT | 81.766 | – | 0.000 | 0.011 | 0.036 | 0.052 | 0.000 | – | – | – | – | – | – | 6.975 | – |
| KTESTSGSPHSKAQNQQT | – | 0.000 | – | – | – | – | – | 66.649 | 0.009 | 0.176 | 1.688 | 0.000 | 95.861 | – | – |
| KTESWSGSPHSKAQNQQT | – | 0.000 | – | – | – | – | – | 69.144 | 0.000 | 0.019 | 0.000 | 0.000 | 67.699 | – | – |
